Source: US10858384B2, “Synthetic molecule constructs” (KODE BIOTECH LIMITED, priority 2004, dated 2020)
Read-outs that look alike come from different tables or passages of the source.

Columns and labels:
[1] = Solubility of synthetic glycolipids in hot PBS; format: physicochemical
Excerpt: In the context of this description the phrase “water soluble” means a stable, single phase system is formed when the synthetic molecule construct is contacted with water or saline (such as PBS) in the absence of organic solvents or detergents, and the term “solution” has a corresponding meaning.
For use in the transformation of cells the first criterion that synthetic glycolipids must satisfy is that they are soluble in aqueous solvents, e.g. phosphate buffered saline.
Initial tests on the molecules were to establish solubility and thus eliminate those molecules that were unsuitable for use in the transformation of cells.

RBCs [2] = experiment: Detectable transformation ability of synthetic glycolipids (agglutination); format: cell-based; conditions: agglutination with the appropriate antibody
Excerpt: The synthetic glycolipid must also be able to insert into the membrane and be recognisable to the appropriate antibody for transformation to be detected by agglutination. Initial tests on the molecules were to establish solubility and thus eliminate those molecules that were unsuitable for use in the transformation of cells.

Mouse RBCs = experiment: Tube serology of murine RBCs transformed with H-antigen synthetic glycolipids; format: cell-based; conditions: for H Antisera IgM, Tube: mouse RBCs; for Agglutination, UEA-1: tube serology
Method: Washed packed mouse RBCs (3 parts by volume) and the synthetic glycolipid solutions (1 part by volume of varying concentrations) were added to an eppendorf tube. The tube was incubated in a 37° C. waterbath for one hour, mixing every 15 minutes. The transformed RBCs were washed 3× with PBS and then suspended in Cellstab™ at the appropriate concentration for serology testing.
Murine RBCs were washed 3× in 1× PBS. 30 μl of packed RBCs were combined with 30 μl of Hdi-sp-Ad-DOPE (VIII), and 30 μl of packed RBCs were combined with 30 μl Galβ-sp-Ad-DOPE (IX), respectively. Both synthetic molecule constructs were at a concentration of 1.0 mg/ml. 30 μl of 1× PBS was added to 30 μl of packed RBCs to act as the control group. Cells were incubated for 90 minutes in a 37° C. shaking water-bath. RBCs were washed 3× in 1× PBS.
Three groups of packed RBCs were incubated with an equal volume of lectin UEA-1 for 30 minutes at room temperature. The lectin was prepared in 1× PBS at a concentration of 0.1 mg/ml. 50 μl of a 3% cell suspension was spun for 15 seconds in an Immunofuge at low speed. Results were read by tube serology.

red blood cells = experiment: Association of KODE-fluorescein with cell membranes (fluorescence microscope); format: cell-based
Excerpt: FIG. 20. Red blood cells following contact with a synthetic molecule construct (XVI) viewed with a fluorescence microscope at 470 nm under 250× magnification.
A medium to strongly fluorescing cell was considered to indicate a uniform distribution of the molecule across the cell membrane (FIG. 20).

RBCs [3] = experiment: Evaluation of insertion of different lipid tails by agglutination with the relevant antisera; format: cell-based; set-up: scale not given here
Excerpt: Transformation of RBCs with synthetic glycolipids with different lipid tails was first evaluated (Tables 22 and 24).

[4] = test system: group O red blood cells (RBCs); experiment: Tube serology of group O RBCs transformed at 37° C. with synthetic glycolipids; format: cell-based, human; set-up: Albaclone anti-A, Tube / Bioclone anti-A, Tube: scale not given here
Method: (§1) Washed packed group O red blood cells (RBCs) (3 parts by volume) and the synthetic glycolipid solution (1 part by volume, varying concentrations) were added to an eppendorf tube. The tube was incubated in a 37° C. waterbath for one hour, mixing every 15 minutes. […]
(§2) Tube serology and Diamed gel-card results for RBCs transformed with the different synthetic molecule constructs are provided in Table 38. Results for the stability of the RBCs transformed with the different synthetic glycolipids at different concentrations are provided in Tables 39 to 44.

[5] = test system: group O red blood cells (RBCs); experiment: Diamed gel-card agglutination of group O RBCs transformed at 37° C. with synthetic glycolipids; format: cell-based, human; set-up: scale not given here
Method: as §1, §2

SMILES: CCCCCCCC/C=C\CCCCCCCC(=O)OC[C@H](COP(=O)(O)OCCNC(=O)CCCCC(=O)NCCCO[C@@H]1O[C@H](CO)[C@H](O)[C@H](O)[C@H]1O[C@@H]1O[C@@H](C)[C@@H](O)[C@@H](O)[C@@H]1O)OC(=O)CCCCCCC/C=C\CCCCCCCC [Hdi-sp-Ad-DOPE (VIII)]
- Water solubility ([1]; hot PBS): Yes
- Detectable transformation ability (RBCs [2]): lack of detectable transformation and No
- H Antisera IgM, Tube (Mouse RBCs; 0.01 mg/mL): 0
- H Antisera IgM, Tube (Mouse RBCs; 0.05 mg/mL): 0
- H Antisera IgM, Tube (Mouse RBCs; 0.1 mg/mL): 0
- H Antisera IgM, Tube (Mouse RBCs; 0.25 mg/mL): 0
- Detection of transformed murine RBCs by anti-H IgM and UEA-1 (Mouse RBCs; 1.0 mg/ml, 37° C. 90 minutes): neither anti-H IgM nor UEA-1 detects
- Agglutination, Mouse IgM^H (Mouse RBCs; Murine RBC, 1 mg/ml): 0
- Agglutination, UEA-1 (Mouse RBCs; Murine RBC, 1 mg/ml): 0

SMILES: CCCCCCCC/C=C\CCCCCCCC(=O)OC[C@H](COP(=O)(O)OCCNC(=O)CCCCC(=O)NCCCO[C@@H]1O[C@H](CO)[C@H](O)[C@H](O)[C@H]1O)OC(=O)CCCCCCC/C=C\CCCCCCCC [Galβ-sp-Ad-DOPE (IX)]
- Water solubility [1]: Yes
- Detectable transformation ability (RBCs [2]): lack of detectable transformation and No
- H Antisera IgM, Tube (Mouse RBCs; 0.01 mg/mL): 0
- H Antisera IgM, Tube (Mouse RBCs; 0.05 mg/mL): 0
- H Antisera IgM, Tube (Mouse RBCs; 0.1 mg/mL): 0
- H Antisera IgM, Tube (Mouse RBCs; 0.25 mg/mL): 0

SMILES: CCCCCCCCC=CCCCCCCCC(=O)OCC(COP(=O)(O)OCCNC(=O)CCCCC(=O)NCCCCCNC(=S)Nc1ccc(-c2c3ccc(=O)cc-3oc3cc(O)ccc23)c(C(=O)O)c1)OC(=O)CCCCCCCC=CCCCCCCCC (centres unmarked) [KODE-fluorescein (I)]
- Association with the membrane of red blood cells (red blood cells): readily associates
- Concentration of dispersion at which insertion is observed (red blood cells): greater than 0.1 mg/ml
- Period for which incorporation and distribution appears stable (red blood cells; cells stored in the dark): at least 40 days

SMILES: CCCCCCCCCCCCCCCCCC(=O)OC[C@H](COP(=O)(O)OCCNC(=O)CCCCC(=O)NCCCO[C@@H]1O[C@H](CO)[C@H](O)[C@H](O[C@H]2O[C@H](CO)[C@H](O)[C@H](O)[C@H]2NC(C)=O)[C@H]1O[C@@H]1O[C@@H](C)[C@@H](O)[C@@H](O)[C@@H]1O)OC(=O)CCCCCCCCCCCCCCCCC [Atri-sp-Ad-DSPE (III)]
- Water solubility ([1]; hot PBS): Yes
- Detectable transformation ability (RBCs [2]): Yes
- Agglutination score (RBCs [3]; 10 μg/mL, Alba anti-A, first series): 0
- Agglutination score (RBCs [3]; 10 μg/mL, Bio anti-A, first series): 0
- Agglutination score (RBCs [3]; 20 μg/mL, Alba anti-A, first series): 0
- Agglutination score (RBCs [3]; 20 μg/mL, Bio anti-A, first series): 0
- Agglutination score (RBCs [3]; 30 μg/mL, Alba anti-A, first series): 0
- Agglutination score (RBCs [3]; 30 μg/mL, Bio anti-A, first series): 0
- Agglutination score (RBCs [3]; 40 μg/mL, Alba anti-A, first series): 0
- Agglutination score (RBCs [3]; 40 μg/mL, Bio anti-A, first series): 0
- Agglutination score (RBCs [3]; 50 μg/mL, Alba anti-A, first series): 0
- Agglutination score (RBCs [3]; 50 μg/mL, Bio anti-A, first series): 0
- Agglutination score (RBCs [3]; 1000 μg/mL, DBA): 0
- Albaclone anti-A, Tube ([4]; 0.01 mg/mL): 0
- Bioclone anti-A, Tube ([4]; 0.01 mg/mL): 0
- Albaclone anti-A, Tube ([4]; 0.02 mg/mL): 0
- Bioclone anti-A, Tube ([4]; 0.02 mg/mL): 0
- Albaclone anti-A, Tube ([4]; 0.03 mg/mL): 0
- Bioclone anti-A, Tube ([4]; 0.03 mg/mL): 0
- Albaclone anti-A, Tube ([4]; 0.04 mg/mL): 0
- Bioclone anti-A, Tube ([4]; 0.04 mg/mL): 0
- Albaclone anti-A, Tube ([4]; 0.05 mg/mL): 0
- Bioclone anti-A, Tube ([4]; 0.05 mg/mL): 0
- Albaclone anti-A, Diamed ([5]; 0.01 mg/mL): 0
- Bioclone anti-A, Diamed ([5]; 0.01 mg/mL): 0
- Albaclone anti-A, Diamed ([5]; 0.05 mg/mL): 0
- Bioclone anti-A, Diamed ([5]; 0.05 mg/mL): 0
- Albaclone anti-A, Diamed ([5]; 0.1 mg/mL): 0
- Bioclone anti-A, Diamed ([5]; 0.1 mg/mL): 0
- Albaclone anti-A, Diamed ([5]; 0.25 mg/mL): 0
- Bioclone anti-A, Diamed ([5]; 0.25 mg/mL): 0

SMILES: CCCCCCCC/C=C\CCCCCCCC(=O)OC[C@H](COP(=O)(O)OCCNC(=O)CCCCC(=O)NCCCO[C@@H]1O[C@H](CO)[C@H](O)[C@H](O)[C@H]1O)OC(=O)CCCCCCC/C=C\CCCCCCCC [Galβ]
- Agglutination, UEA-1 (Mouse RBCs; Murine RBC, 1 mg/ml): 0
